Experimental data: PubChem BioAssay (NCI)
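At the GI50, growth is halved. TGI: total growth inhibition.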

Assays:
Assay in all cases: NCI anticancer screen, dose series, 384-well format
[1] = test system: LOX IMVI melanoma
[2] = test system: SK-OV-3 ovarian
[3] = test system: PC-3 prostate
[4] = test system: SW-620 colon
[5] = test system: MOLT-4 leukemia
[6] = test system: NCI-H322M lung
[7] = test system: SF-295 CNS
[8] = test system: A549 NSCLC
[9] = test system: K-562 leukemia
[10] = test system: BT-549 breast
[11] = test system: SF-268 CNS
[12] = test system: CAKI-1 renal
[13] = test system: OVCAR-5 ovarian
[14] = test system: HT29 colon
[15] = test system: HCT-116 colon
[16] = test system: U251 glioblastoma
[17] = test system: UACC-62 melanoma
[18] = test system: SR leukemia
[19] = test system: RXF 393 renal
[20] = test system: MDA-MB-435 melanoma
[21] = test system: 786-0 renal
[22] = test system: OVCAR-4 ovarian
[23] = test system: HOP-62 NSCLC
[24] = test system: ACHN renal
[25] = test system: T-47D breast
[26] = test system: HS 578T breast
[27] = test system: KM12 colon
[28] = test system: MDA-MB-231 breast
[29] = test system: OVCAR-3 ovarian
[30] = test system: NCI-H522 lung
[31] = test system: SN12C renal
[32] = test system: MDA-MB-468 breast
[33] = test system: MCF7 breast
[34] = test system: SNB-75 CNS
[35] = test system: RPMI-8226 leukemia
[36] = test system: HL-60(TB) leukemia
[37] = test system: UO-31 renal
[38] = test system: MALME-3M melanoma
[39] = test system: SNB-19 CNS
[40] = test system: HOP-92 NSCLC
[41] = test system: SK-MEL-5 melanoma
[42] = test system: EKVX NSCLC
[43] = test system: NCI/ADR-RES ovarian
[44] = test system: HCC-2998 colon
[45] = test system: TK-10 renal
[46] = test system: OVCAR-8 ovarian
[47] = test system: M14 melanoma
[48] = test system: IGROV1 ovarian
[49] = test system: NCI-H460 NSCLC
[50] = test system: NCI-H23 lung
[51] = test system: HCT-15 colon
[52] = test system: SK-MEL-2 melanoma
[53] = test system: DU-145 prostate
[54] = test system: SK-MEL-28 melanoma
[55] = test system: A498 renal
[56] = test system: SF-539 CNS
[57] = test system: NCI-H226 lung
[58] = test system: UACC-257 melanoma
[59] = test system: COLO 205 colon

In the case of `COc1cc(OC)cc(N(CCNC(C)C)c2ccc3ncc(-c4cnn(C)c4)nc3c2)c1`, the GI50 [1] is reported as 2710 nM, the TGI [1] is reported as 6.09 µM and the GI50 [2] is reported as 2010 nM. It also gave a TGI [2] of 5.35 µM, a GI50 [3] of 3.61 µM and a TGI [3] of 13.1 µM. The GI50 [4] was 4.34 µM, the TGI [4] was 14.2 µM and the GI50 [5] was 1510 nM. It also gave a TGI [5] of 2930 nM, a GI50 [6] of 3.88 µM and a TGI [6] of 12.9 µM. The GI50 [7] was 9.3 µM, the TGI [7] was 18.3 µM and the GI50 [8] was 3.73 µM. For the same compound, the TGI [8] was 11.2 µM, the GI50 [9] was 890 nM and the TGI [9] was 2150 nM. It also gave a GI50 [10] of 630 nM, a TGI [10] of 5.83 µM and a GI50 [11] of 4.42 µM. The TGI [11] was 15.9 µM, the GI50 [12] was 1590 nM and the TGI [12] was 4.16 µM. For the same compound, the GI50 [13] was 5.47 µM, the TGI [13] was 17 µM and the GI50 [14] was 3.97 µM. The TGI [14] was 11.2 µM, the GI50 [15] was 2960 nM and the TGI [15] was 9.31 µM. The GI50 [16] was 5.92 µM, the TGI [16] was 14.8 µM and the GI50 [17] was 3.49 µM. The TGI [17] was 12.4 µM, the GI50 [18] was 1570 nM and the TGI [18] was 2940 nM. The GI50 [19] was 1020 nM, the TGI [19] was 2890 nM and the GI50 [20] was 3.49 µM. The TGI [20] was 10.6 µM, the GI50 [21] was 2170 nM and the TGI [21] was 5.11 µM. The GI50 [22] was 4.66 µM, the TGI [22] was 17.1 µM and the GI50 [23] was 4.16 µM. The TGI [23] was 13 µM, the GI50 [24] was 2030 nM and the TGI [24] was 5.45 µM. The GI50 [25] was 6.41 µM, the TGI [25] was 12.6 µM and the GI50 [26] was 1500 nM. The TGI [26] was 3.73 µM, the GI50 [27] was 4.88 µM and the TGI [27] was 16.1 µM. The GI50 [28] was 2750 nM, the TGI [28] was 8.18 µM and the GI50 [29] was 3.62 µM. For the same compound, the TGI [29] was 13.1 µM, the GI50 [30] was 3.44 µM and the TGI [30] was 10.3 µM. For the same compound, the GI50 [31] was 3.19 µM, the TGI [31] was 10.8 µM and the GI50 [32] was 2010 nM. For the same compound, the TGI [32] was 4.47 µM, the GI50 [33] was 7.81 µM and the TGI [33] was 15.3 µM. It also gave a GI50 [34] of 132 nM, a TGI [34] of 1690 nM and a GI50 [35] of 3.68 µM. The TGI [35] was 12.3 µM, the GI50 [36] was 2510 nM and the TGI [36] was 4.65 µM. The GI50 [37] was 3.04 µM, the TGI [37] was 8.81 µM and the GI50 [38] was 2270 nM. For the same compound, the TGI [38] was 4.97 µM, the GI50 [39] was 9.29 µM and the TGI [39] was 22 µM. It also gave a GI50 [40] of 2910 nM, a TGI [40] of 9.38 µM and a GI50 [41] of 1660 nM. For the same compound, the TGI [41] was 3.66 µM, the GI50 [42] was 7.26 µM and the TGI [42] was 15.7 µM. It also gave a GI50 [43] of 3.56 µM, a TGI [43] of 11.8 µM and a GI50 [44] of 4.52 µM. It also gave a TGI [44] of 9.47 µM, a GI50 [45] of 2790 nM and a TGI [45] of 10.1 µM. The GI50 [46] was 5.09 µM, the TGI [46] was 14.1 µM and the GI50 [47] was 2850 nM. The TGI [47] was 7.68 µM, the GI50 [48] was 2190 nM and the TGI [48] was 5.78 µM. The GI50 [49] was 2630 nM, the TGI [49] was 7.1 µM and the GI50 [50] was 4.66 µM. For the same compound, the TGI [50] was 13.5 µM, the GI50 [51] was 2990 nM and the TGI [51] was 10.1 µM. It also gave a GI50 [52] of 2150 nM, a TGI [52] of 4.8 µM and a GI50 [53] of 4.12 µM. It also gave a TGI [53] of 14 µM, a GI50 [54] of 6.2 µM and a TGI [54] of 16.4 µM. It also gave a GI50 [55] of 2680 nM, a TGI [55] of 8.53 µM and a GI50 [56] of 946 nM. For the same compound, the TGI [56] was 7.77 µM, the GI50 [57] was 2570 nM and the TGI [57] was 11 µM. For the same compound, the GI50 [58] was 2280 nM, the TGI [58] was 4.72 µM and the GI50 [59] was 4.59 µM. The TGI [59] was 12.6 µM.
